Laboratory results: BindingDB's records for doi:10.1021/acs.biochem.6b00733 (Utrecht University, 2016)

Target: T1, Nicotinamide N-methyltransferase (Homo sapiens, UniProt P40261)
T1 sequence (P40261 whole entry): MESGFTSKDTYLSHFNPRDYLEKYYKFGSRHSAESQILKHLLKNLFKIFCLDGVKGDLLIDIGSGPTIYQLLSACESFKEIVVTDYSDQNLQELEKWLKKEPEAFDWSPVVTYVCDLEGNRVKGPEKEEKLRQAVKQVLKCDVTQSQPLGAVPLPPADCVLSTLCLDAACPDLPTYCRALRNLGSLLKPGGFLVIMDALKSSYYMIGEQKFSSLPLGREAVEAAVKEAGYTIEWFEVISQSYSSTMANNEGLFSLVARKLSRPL
Assay: NNMT Enzymatic Activity Assay
Conditions: pH 8.6; 37 °C
Method: Enzyme activity assays were performed as previously described with NNMT (16.25 ug/mL, 550 nM) in 50 mM Tris buffer (pH 8.6) containing 1 mM DTT (all final concentrations). The enzyme was incubated with the substrate pyridine compound for 5 min at 37 °C using a heat block before the reaction was initiated by addition of AdoMet (for substrates that were not soluble in water, stocksolutions were prepared in DMSO and diluted to a final DMSO concentration of <5% in the assay mixture). […] For these screens, the final reagent concentrations were 100 uM AdoMet and 2.0 mM substrate and a series of time points were initially investigated (5, 15, 30, and 60 min). At each time point, 15 uL aliquots of the reaction mixture were taken and added to 70 uL of acetonitrile, which served to quench the reaction by causing precipitation of the enzyme.

NC(=O)c1cnc2ccccc2c1 [quinoline 3-carboxamide] and NC(=S)c1cccnc1 [thionicotinamide] are within 1.5-fold of each other in Ki: 9.7 mM for the first, 6.6 mM for the second.

c1ccc2c(c1)CCNC2 [1,2,3,4-tetrahydroisoquinoline] was tested, and the Ki was 4.7 mM.
